Read-outs that look alike come from different tables or passages of the source.
Columns and labels:
[1] = target: T1, Cyp21 enzyme (Human HEK 293-Cyp21 stable transfected cells) (Homo sapiens, UniProt P08686); test: CYP21-HEK293 enzymatic assay (IC50) (Biological Example 11); type: cell-based
T1 construct: expressed in transfected cells
T1 sequence (P08686 1-495): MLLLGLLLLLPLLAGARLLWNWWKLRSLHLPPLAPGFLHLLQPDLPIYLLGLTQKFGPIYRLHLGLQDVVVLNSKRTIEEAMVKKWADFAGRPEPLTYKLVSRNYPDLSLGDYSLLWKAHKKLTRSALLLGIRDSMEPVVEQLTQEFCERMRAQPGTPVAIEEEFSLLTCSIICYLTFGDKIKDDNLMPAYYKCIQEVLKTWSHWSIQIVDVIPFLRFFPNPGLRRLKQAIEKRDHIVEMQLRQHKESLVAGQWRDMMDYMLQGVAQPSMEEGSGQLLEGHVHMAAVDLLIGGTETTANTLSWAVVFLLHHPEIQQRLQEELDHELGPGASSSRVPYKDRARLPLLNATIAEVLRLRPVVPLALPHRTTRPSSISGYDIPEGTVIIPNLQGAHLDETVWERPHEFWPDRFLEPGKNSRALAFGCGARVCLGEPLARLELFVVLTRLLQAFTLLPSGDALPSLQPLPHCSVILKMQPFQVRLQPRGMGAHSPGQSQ

[2] = target: T2, CYP17 (human testicular microsome) (Homo sapiens, UniProt P05093); test: CYP17 enzymatic assay (IC50) (Biological Example 4); type: biochemical
T2 construct: using microsomal fraction from human testis (Celsis Cat #S00110) as the enzyme source; tissue Celsis S00110; host or cells: human testis microsomal fraction
T2 sequence (P05093 1-508): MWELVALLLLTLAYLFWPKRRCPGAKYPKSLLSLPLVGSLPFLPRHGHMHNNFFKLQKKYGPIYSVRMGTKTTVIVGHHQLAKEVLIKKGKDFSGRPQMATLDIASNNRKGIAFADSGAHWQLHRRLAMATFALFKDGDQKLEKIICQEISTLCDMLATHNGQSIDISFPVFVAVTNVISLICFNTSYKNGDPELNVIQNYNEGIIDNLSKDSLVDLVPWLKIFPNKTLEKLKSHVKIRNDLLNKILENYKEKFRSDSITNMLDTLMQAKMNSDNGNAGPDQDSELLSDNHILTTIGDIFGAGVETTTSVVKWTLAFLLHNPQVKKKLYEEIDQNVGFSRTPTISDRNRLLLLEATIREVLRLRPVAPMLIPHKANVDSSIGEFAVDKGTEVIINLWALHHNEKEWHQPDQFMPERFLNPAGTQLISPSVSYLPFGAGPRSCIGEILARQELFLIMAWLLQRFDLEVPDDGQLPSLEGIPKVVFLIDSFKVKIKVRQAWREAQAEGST

[3] = Human liver microsome stability assay (Biological Example 8b); conditions: liver microsomes, pH 7.4
Protocol: The reaction was started with addition of excess NADPH (5 mg/mL, 15 μL in 0.1 M potassium phosphate buffer, 1.0 mM EDTA, pH 7.4), the total volume is 45 μL (compound final concentration was 1 μM). […] 50 μL of the supernatant was transferred from each well into a 96-well sample plate containing 50 μL of ultra-pure water (Millipore) for LC-MS/MS analysis.

[4] = target: T2, CYP17 (human testicular microsome); test: CYP17 enzymatic assay (% inhibition at 1 nM) (Biological Example 12); type: biochemical
Protocol: The assays were performed in 96-well plates. Typical assays were carried out in total 100 μL volume that included test compounds at 1 nM concentration, 1× reaction buffer, 0.5 mM NADPH, 1 μM 17α-hydroxypregnenolone, and 2.5 μL of human testicular microsome (Celsis. Cat #S00110). Reaction without test compound served as a positive control. Reactions were allowed to incubate at 37° C. for 90 min with gentle shaking. The reaction was stopped by directly applying the enzymatic reaction mixture to ELISA plate for evaluation of DHEA concentration according to manufacturer's protocol (IBL America). A standard curve (OD450 vs. DHEA concentration) was generated using purified DHEA. […] Percent inhibition (inhibition %) of the compound was calculated using normalized DHEA concentration based on following formula: 100−([DHEA] of compound/[DHEA] of positive control*100).

[5] = target: T3, CYP17 (H295R cells) (Homo sapiens, UniProt P05093); test: CYP17 cellular assay (IC50), testosterone in H295R cells (Biological Example 7); type: cell-based; conditions: H295R cells, testosterone
T3 construct: endogenous in cells; host or cells: H295R cells
T3 sequence (P05093 1-508): T2 sequence (P05093 1-508)
Protocol: The assays were performed in 96-well plates. Typically H295R cells were seeded at 4.5×10^4 cells/well in 100 μL Growth Medium containing DMEM/F-12 (Gibco/Invitrogen; 11330-032), 2.5% Nu-Serum (BD Bioscience; 355100) and ITS (BD Bioscience; 354352), and cultured at 37° C., 5% CO2 for 24 hr. The next day, media were carefully removed and cells were washed twice with 200 μL 1×HBSS++. Test compounds were then added to the cells at 100, 10, 1, 0.1 nM final concentrations in 125 μL volume per well in serum-free media containing DMEM/F-12 and ITS+ Premix (BD Bioscience; 354352) with 0.1% methanol. Serum-free media with 0.1% methanol without test compound was used as control. Cells were incubated with compounds at 37° C. for additional 24 hours, and the cultured media from each compound treated well was harvested for measurement of testosterone concentration by ELISA according to manufacturer's instruction (Assay Design). Testosterone concentration of each sample was plotted vs. the concentration of the test compounds.

[6] = target: T2, CYP17 (human testicular microsome); test: CYP17 enzymatic assay (% inhibition at 10 nM), version 1 (Biological Example 5); type: biochemical; conditions: test compound at 10 nM, read-out: CYP17 enzymatic assay percent inhibition at 10 nM (Biological Example No. 5)
Protocol: The assays were performed in 96-well plates. Typical assays were carried out in total 100 μL volume that included test compounds at 10 nM concentration, 1× reaction buffer, 0.5 mM NADPH, 1 μM 17α-hydroxypregnenolone, and 2.5 μL of diluted human testicular microsome (Celsis. Cat #S00110). Reaction without test compound served as positive control. Reactions were allowed to incubate at 37° C. for 90 minutes with gentle shaking. The reaction was stopped by directly applying the enzymatic reaction mixture to ELISA plate for evaluation of DHEA concentration according to manufacturer's protocol (IBL America). A standard curve (OD450 vs. DHEA concentration) was generated using purified DHEA. […] Percent inhibition (inhibition %) of the compound was calculated using normalized DHEA concentration based on following formula: 100-([DHEA] of compound/[DHEA] of positive control *100).

[7] = HEK 293-Cyp21 cells, read-out: Biological Example No. 11: CYP21-HEK293 enzymatic assay IC50
[8] = compound at 1 nM, read-out: Biological Example No. 12: CYP17 enzymatic assay % inhibition at 1 nM
[9] = human testicular microsome, read-out: Biological Example No. 4: CYP17 enzymatic assay IC50
[10] = compound at 1 nM, read-out: CYP17 enzymatic assay % inhibition at 1 nM (Biological Example No. 12)
[11] = read-out: Biological Example No. 7: CYP17 cellular assay IC50
[12] = HEK 293-Cyp21 cells, read-out: CYP21-HEK293 enzymatic assay IC50 (Biological Example No. 11)
[13] = human testicular microsome, read-out: CYP17 enzymatic assay IC50 (Biological Example No. 4)

CC1C[C@H]2C3=CC=C(c4cccnc4)[C@@]3(C)CC[C@@H]2[C@@]2(C)CCC(=O)C=C12 (stereo partly drawn) [Compound 315, (10R,13S)-6,10,13-trimethyl-17-(pyridin-3-yl)-6,7,8,9,10,11,12,13-octahydro-1H-cyclopenta[a]phenanthren-3(2H)-one]
IC50 [1, 7]: < 10 nM | IC50 [2]: < 11 nM | half-life at 1 μM [3]: 1 to 50 min | inhibition at 0.001 µM [4, 8]: > 50%

CCC1CC2C3=CC=C(c4cccnc4)[C@@]3(C)CCC2[C@@]2(C)CCC(=O)C=C12 (stereo partly drawn) [Compound 482, (10R,13S)-6-ethyl-10,13-dimethyl-17-(pyridin-3-yl)-6,7,8,9,10,11,12,13-octahydro-1H-cyclopenta[a]phenanthren-3(2H)-one]
IC50 [1, 7]: 10 to 100 nM | IC50 [2]: < 11 nM | half-life at 1 μM [3]: 1 to 50 min | inhibition at 0.001 µM [4, 8]: 10 to 50%

C[C@]12CCNC(=O)C=C1C1CC1[C@@H]1[C@@H]2CC[C@]2(C)C(c3cccnc3)=CC[C@@H]12 (stereo partly drawn) [Compound 382, (5aR,7aS)-5a,7a-dimethyl-8-(pyridin-3-yl)-3,4,5,5a,5b,6,7,7a,10,10a,10b,10c,11,11a-tetradecahydro-2H-cyclopenta[5,6]cyclopropa[3,4]naphtho[1,2-d]azepin-2-one]
IC50 [1, 7]: > 100 nM | IC50 [2, 9]: < 11 nM | half-life at 1 μM [3]: 1 to 50 min | inhibition at 0.001 µM [4, 8]: > 50%

CN(C)CC(=O)O[C@H]1CC[C@@]2(C)C(=CC[C@H]3C4=CC=C(c5cccnc5)[C@@]4(C)CC[C@@H]32)C1 [195′, (3S,10R,13S)-10,13-dimethyl-17-(pyridin-3-yl)-2,3,4,7,8,9,10,11,12,13-decahydro-1H-cyclopenta[a]phenanthren-3-yl 2-(dimethylamino)acetate]
IC50 ([5]; read-out: CYP17 cellular assay IC50 (Biological Example No. 7)): 15 to 100 nM | inhibition at 0.001 µM [4, 10]: > 50%

CC1C[C@H]2C3=CC=C(c4cccnc4)[C@@]3(C)CC[C@@H]2[C@@]2(C)C=CC(=O)C=C12 (stereo partly drawn) [Compound 349, (10R,13S)-6,10,13-trimethyl-17-(pyridin-3-yl)-6,7,8,9,10,11,12,13-octahydro-3H-cyclopenta[a]phenanthren-3-one]
IC50 ([1]; HEK 293-Cyp21 stable transfected cells, read-out: CYP21-HEK293 enzymatic assay IC50 (Biological Example No. 11)): < 10 nM | inhibition at 0.01 µM [6]: > 80% | half-life at 1 μM [3]: 1 to 50 min | inhibition at 0.001 µM ([4]; test compound at 1 nM, read-out: CYP17 enzymatic assay percent inhibition at 1 nM (Biological Example No. 12)): > 50%

C[C@]12CC[C@H]3[C@@H](CC=C4C[C@@H](O)CC[C@@]43C)C1=CC=C2c1cncc(C(F)F)c1 [Compound 272, (3S,10R,13S)-17-(5-(difluoromethyl)pyridin-3-yl)-10,13-dimethyl-2,3,4,7,8,9,10,11,12,13-decahydro-1H-cyclopenta[a]phenanthren-3-ol]
IC50 [5, 11]: 15 to 100 nM | inhibition at 0.001 µM [4, 8]: < 10%

C[C@]12CCC(=O)C=C1C=CC1C2CC[C@]2(C)C(c3cccnc3)=CCC12 (stereo partly drawn) [Compound 408, (10R,13S)-10,13-dimethyl-17-(pyridin-3-yl)-8,9,10,11,12,13,14,15-octahydro-1H-cyclopenta[a]phenanthren-3(2H)-one]
IC50 [1, 7]: > 100 nM | half-life at 1 μM [3]: 1 to 50 min | inhibition at 0.001 µM [4, 8]: > 50%

C[C@]12CCC(=O)C=C1C1CC1[C@@H]1[C@@H]2CC[C@]2(C)C(c3cccnc3)=CC[C@@H]12 (stereo partly drawn) [Compound 319, (4aR,6aS)-4a,6a-dimethyl-7-(pyridin-3-yl)-4,4a,4b,5,6,6a,9,9a,9b,9c,10,10a-dodecahydrocyclopenta[a]cyclopropa[l]phenanthren-2(3H)-one]
IC50 [1, 7]: > 100 nM | half-life at 1 μM [3]: 1 to 50 min | inhibition at 0.001 µM [4, 8]: > 50%

C[C@]12CCC3C(CCC4=CC(=O)CC[C@@]43C)C1=CC=C2c1cncnc1 (stereo partly drawn) [Compound 471, (10R,13S)-10,13-dimethyl-17-(pyrimidin-5-yl)-6,7,8,9,10,11,12,13-octahydro-1H-cyclopenta[a]phenanthren-3(2H)-one]
IC50 [1, 12]: 10 to 100 nM | IC50 [2, 13]: < 11 nM | half-life at 1 μM [3]: 1 to 50 min | inhibition at 0.001 µM [4, 10]: > 50%

CC1C(O)CC[C@@]2(C)C1CC[C@@H]1[C@@H]2CC[C@]2(C)C(c3cccnc3)=CC[C@@H]12 (stereo partly drawn) [Compound 304, (10R,13S)-4,10,13-trimethyl-17-(pyridin-3-yl)-2,3,4,5,6,7,8,9,10,11,12,13,14,15-tetradecahydro-1H-cyclopenta[a]phenanthren-3-ol]
IC50 [2, 9]: < 11 nM | IC50 [5, 11]: < 15 nM | inhibition at 0.001 µM [4, 8]: 10 to 50%

C[C@]12CCNC(=O)C=C1C(F)CC1C2CC[C@]2(C)C(c3cccnc3)=CCC12 (stereo partly drawn) [Compound 370, (5aR,7aS)-12-fluoro-5a,7a-dimethyl-8-(pyridin-3-yl)-3,4,5,5a,5b,6,7,7a,10,10a,11,12-dodecahydrocyclopenta[5,6]naphtho[1,2-d]azepin-2(10bH)-one]
IC50 [1, 7]: > 1000 nM | IC50 [2, 9]: < 11 nM | half-life at 1 μM [3]: 1 to 50 min | inhibition at 0.001 µM [4, 8]: > 50%

C[C@]12CCC3C(CCC4=CC(=O)CC[C@@]43C)C1=CC=C2c1cnccn1 (stereo partly drawn) [Compound 291, (10R,13S)-10,13-dimethyl-17-(pyrazin-2-yl)-6,7,8,9,10,11,12,13-octahydro-1H-cyclopenta[a]phenanthren-3(2H)-one]
IC50 [1, 12]: > 100 nM | half-life at 1 μM [3]: 1 to 50 min | inhibition at 0.001 µM [4, 10]: > 50%

C[C@]12CC[C@H]3[C@@H](C=CC4=CC(=O)CC[C@@]43C)C1=CC=C2c1cccnc1 [Compound 289, (10R,13S)-10,13-dimethyl-17-(pyridin-3-yl)-8,9,10,11,12,13-hexahydro-1H-cyclopenta[a]phenanthren-3(2H)-one]
IC50 [1, 12]: 10 to 100 nM | IC50 [2, 13]: < 11 nM | half-life at 1 μM [3]: 1 to 50 min | inhibition at 0.001 µM [4, 10]: > 50%

CC1CC2C(CC[C@]3(C)C(c4cccnc4)=CCC23)[C@@]2(C)CCC(=NO)C=C12 (stereo partly drawn) [Compound 361, (10R,13S)-6,10,13-trimethyl-17-(pyridin-3-yl)-6,7,8,9,10,11,12,13,14,15-decahydro-1H-cyclopenta[a]phenanthren-3(2H)-one oxime]
IC50 [1, 7]: > 100 nM | half-life at 1 μM [3]: 1 to 50 min | inhibition at 0.001 µM [4, 8]: 10 to 50%

C[C@]12CCC(=O)C=C1C(F)C[C@@H]1[C@@H]2CC[C@]2(C)C(c3cncc(F)c3)=CC[C@@H]12 (stereo partly drawn) [Compound 325, (10R,13S)-6-fluoro-17-(5-fluoropyridin-3-yl)-10,13-dimethyl-6,7,8,9,10,11,12,13,14,15-decahydro-1H-cyclopenta[a]phenanthren-3(2H)-one]
IC50 [1, 7]: > 1000 nM | IC50 [2, 9]: < 11 nM | half-life at 1 μM [3]: 1 to 50 min | inhibition at 0.001 µM [4, 8]: > 50%
